Data published in patent US20240010679A1, “ANTIN[…] AND USES THEREOF” (THE UNIVERSITY OF BRITISH COLUMBIA, priority 2020, published 2024).
Values after ≈ are worked out from the molar mass of the structure shown. Values joined by “and” are separate entries in the source; they are usually repeats but may differ in a detail not shown here. Identical values can stand only once. “Also recorded” adds a separate entry of the source. Like-named read-outs stand apart in the source and are kept apart here.

What was measured:
[1] = biological target: human DOR (Homo sapiens, UniProt P41143); details: relative scintillation compared to Leu-ENK at 6 nmol/L, [3H]DADLE displacement, mean of duplicates
human DOR, sequence (P41143 whole entry): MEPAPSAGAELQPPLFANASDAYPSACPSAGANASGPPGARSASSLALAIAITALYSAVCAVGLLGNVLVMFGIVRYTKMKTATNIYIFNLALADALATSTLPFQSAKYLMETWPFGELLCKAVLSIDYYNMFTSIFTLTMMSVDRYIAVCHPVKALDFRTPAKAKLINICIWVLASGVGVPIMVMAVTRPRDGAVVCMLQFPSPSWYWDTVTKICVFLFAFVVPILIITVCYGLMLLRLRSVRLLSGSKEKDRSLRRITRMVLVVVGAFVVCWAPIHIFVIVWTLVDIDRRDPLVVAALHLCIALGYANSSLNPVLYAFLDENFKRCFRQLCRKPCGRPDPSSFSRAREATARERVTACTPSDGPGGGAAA
Procedure: Binding studies were performed by Eurofins Scientific (Cereb, France). Briefly, COS-1 cells transfected with plasmids encoding human DOR (Gene ID: 4985) were grown in Dulbecco's modified Eagle's medium with 10% fetal calf serum and scraped from plates. Membranes were prepared using a Dounce homogenizer and stored at −80° C. until used. Membranes (40 μg protein/tube) were suspended in Tris-HCl, pH 7.4, for 2 h at 25° C., rapidly filtered on 0.1% polyethylenimine-pretreated GF/B filters and washed with the same cold Tris buffer (3×) using a Brandel cell harvester. […] Nonspecific binding was determined in the presence of naltrexone (10 μmol/L).

[2] = Plasma stability assay; type: in vitro ADME, mouse; details: for remaining at 1 h, 0.315 mmol/L: mouse plasma, 37° C., read-out: Intact peptide after 1 h in plasma
Procedure: (§1) Peptides (1.5 g/L) dissolved in saline/TWEEN 80/DMSO (90:5:5, v/v) were mixed with mouse plasma or human cerebrospinal fluid, respectively, to a final concentration of 0.315 mmol/L and incubated in a thermomixer (37° C., 750 rpm) Aliquots (45 μL) were mixed with aqueous acetonitrile (90%, v/v, 300 μL) containing formic acid (FA, 0.1%, v/v) and incubated on ice (30 min). After two centrifugation steps (12,000×g, 5 min), the supernatant (300 μL) was diluted in water (900 μL), dried by lyophilization, reconstituted in aqueous acetonitrile (4.5%, v/v) containing FA (0.1%, v/v), stored at −20° C., and analyzed with reverse-phase chromatography (RPC) on a C8-column (1 mm×150 mm) with a linear aqueous acetonitrile gradient typically from 5 to 95% eluent B in 15 min (eluent A: 0.1% (v/v) aqueous FA; eluent B: 90% aqueous acetonitrile containing 0.1% (v/v) FA. The RPC was coupled on-line to a UV detector measuring the absorbance at 214 nm and a mass spectrometer (MS) for peak identification. Peptide quantities were estimated using peak areas of the UV signal relative to the initial peak areas (t=0).

[3] = system: female CD-1 mice; experiment: Respiratory rate assay; details: s.c.; for breathing depression: KK-103 13 mg/kg, morphine 10 mg/kg, FIG. 10C
Procedure: The respiratory rate was assessed in awake mice lightly restrained in a well-ventilated 50 mL falcon tube with a darkened tip. Prior to the drug treatment, each animal was habituated in the tube for 30 min. The falcon tube was secured onto a stand facing lengthwise to a video camera. […] Animals were recorded at selected time points for 10 min to measure the respiration rate.

[4] = system: female CD-1 mice; experiment: Formalin foot assay; type: in vivo, mouse; details: s.c.
Procedure: (§2) Mice were allowed an acclimatization period of at least one week in the animal facility before experiments.
On the day of the experiment, mice were acclimatized to the experimental setup by putting them in darkened, non-transparent plexiglas cylinders (height, 20 cm; diameter, 9 cm) placed on a glass plane for 2 h. […] After successful injection, mice were immediately placed into cylinders and their behavior was monitored for 1 h. […] The accumulated licking and biting time of each animal was determined and recorded in 5 min bins. The total response time was plotted as early phase 1 from 0 to 5 min, and late phase 2 from 20 to 40 min after formalin injection.

[5] = system: female CD1 mice; experiment: Dependence test (naloxone-induced jumps); details: twice daily s.c., KK-103 13 mg/kg, morphine 10 mg/kg; naloxone 4 mg/kg i.p., first 10 min
[6] = system: female CD1 mice; details: mouse, in vivo; cited from earlier work
[7] = Plasma and brain concentrations after injection (UPLC); type: in vivo; details: female, CD-1, mouse; for tissue level at time at 2 h: 2 h after s.c. injection; for half-life: 50 mg/kg, read-out: elimination half-life
Procedure: Blood collection from mice was performed by saphenous vein punctuation (volume withdrawn <7 mL/kg) followed by a cardiac puncture later, allowing for 2 sampling time points per animal with a minimum sampling interval of 50 min. Cardiac puncture was an experimental endpoint after which animals were euthanized using isoflurane followed by cervical dislocation. Blood samples were collected in EDTA coated collection tubes and chilled on ice immediately after collection. Blood plasma was separated from whole blood by centrifugation at 2.000 g for 7 min and carefully removed from the cell pellet. Blood plasma samples were immediately frozen on dry ice and stored at −80 C until further analysis.
Samples for liquid chromatography-mass spectrometry analysis were prepared by acetonitrile protein precipitation. Therefore, 50 μL of plasma was combined with 300 μL ice cold 90% acetonitrile containing 0.1% formic acid, briefly vortexed and put on ice for 30 min. After that samples were centrifuged at 4 C for 5 min (>12 k rpm) and supernatant (325 μL) transferred in a new tube. The previous centrifugation step was repeated and a final volume of 305 μL of the supernatant transferred into a new 1.5 mL tube. Water (800 μL) was added to samples after which they were frozen and lyophilized. The dried samples were resolubilized in 50 μL 4.5% acetonitrile, 0.1% formic acid in water, vortexed (1 min), sonicated (5 min), vortexed (1 min) and centrifuged for 5 min (>12 k rpm). Samples were measured in an ACQUITY UPLC H-Class chromatography system (Waters, Milford, MA) and a sample volume of 10 μL was injected onto the reverse phase column.
An ACQUITY UPLC H-Class chromatography system (Waters, Milford, MA) coupled on-line to a photodiode array detector (absorbance recorded at 214 nm, Waters) and to the electrospray ionization source on a mass spectrometer (QDa detector, Waters) operated in the positive ion mode was used. Separation relied on a BEH-C18 column (inner diameter: 1.1 mm; length: 50 mm; particle size: 1.7 μm, Waters) at a flow rate of 0.1 mL/min using a linear aqueous acetonitrile gradient in the presence of FA (0.1%, v/v).
Ionization was carried out at a source temperature of 450° C. using a cone voltage of 10 V and a capillary voltage of 1.5 kV. Mass spectra were typically acquired for an m/z range from 50 to 1250 at a sampling rate of 2 points per second. Quantities of the peptide were determined based on a calibration curve of the analyte in mouse plasma and the peak areas of the UV signal at 214 nm as well as mass spectrometry by detecting the singly charged molecular ions.

[8] = Stability in the presence of human liver microsomes; type: in vitro ADME; details: after 1 h, read-out: drug degradation in the presence of human liver microsomes
[9] = system: human liver microsome enzymes; experiment: Inhibition of human liver microsome enzymes; type: in vitro ADME
[10] = Solubility in injection vehicle; type: physicochemical; details: normal saline/TWEEN 80 (9/1, v/v) injection vehicle
[11] = system: female CD1 mice; experiment: Toxicity, highest deliverable single dose; type: in vivo, mouse; details: single s.c. dose
Procedure: Animals were monitored and evaluated every 30 min. After 3 h, the time of maximal antinociceptive effect, animals were euthanized.

[12] = system: female CD-1 mice; experiment: Open field test; details: 15 mg/kg s.c.
Excerpt: as §2

[13] = CSF stability assay; type: in vitro ADME, human; details: 5 h of incubation
Procedure: as §1

Structure (SMILES): COC(=O)[C@H](CC(C)C)NC(=O)[C@H](Cc1ccccc1)NC(=O)CNC(=O)CNC(=O)[C@H](Cc1ccc(O)cc1)NC(C)=O [KK-14]
- Relative Binding to DOR [1]: 38%
- remaining at 1 h, 0.315 mmol/L [2]: 82 ± 3%

Structure (SMILES): COC(=O)[C@H](CC(C)C)NC(=O)[C@H](Cc1ccccc1)NC(=O)CNC(=O)CNC(=O)[C@H](Cc1ccc(O)cc1)NC(=O)C(C)(C)C [KK-102]
- Relative Binding to DOR ([1]; listed as KK-102/ KK-103): 68%
- conversion in mouse plasma (deesterification of methyl ester) [2]: converting to KK-103; also recorded: rapidly deesterifies to KK-103
- remaining at 1 h, 0.315 mmol/L [2]: 93 ± 1%

Structure (SMILES): COC(=O)[C@H](CC(C)C)NC(=O)[C@H](Cc1ccccc1)NC(=O)CNC(=O)CNC(=O)[C@H](Cc1ccc(O)cc1)NC(=O)Cc1ccccc1 [KK-81]
- Relative Binding to DOR [1]: 41%
- remaining at 1 h, 0.315 mmol/L [2]: 88 ± 11%

Structure (SMILES): CN1CC[C@]23c4c5ccc(O)c4O[C@H]2[C@@H](O)C=C[C@H]3[C@H]1C5 [morphine]
- decrease of respiratory rate compared with vehicle control ([3]; 10 mg/kg, 30 min post injection): 56%
- breathing depression [3]: significant reduction of breathing rate
- nociceptive response in phase 2, in words ([4]; 10 mg/kg, phase 2 (20-40 min)): completely diminished the nociceptive response
- reduction of paw licking and biting time, phase 1 (0-5 min), compared to the control ([4]; morphine 10 mg/kg, KK-103 13 mg/kg): 30%
- physical dependence: withdrawal jumps after naloxone [5]: significant withdrawal syndromes
- dose up to which safe to use [6]: up to 60 mg/kg

Structure (SMILES): CCCCCCCC(=O)N[C@@H](Cc1ccc(O)cc1)C(=O)NCC(=O)NCC(=O)N[C@@H](Cc1ccccc1)C(=O)N[C@@H](CC(C)C)C(=O)OC [KK-105]
- Relative Binding to DOR [1]: 59%
- remaining at 1 h, 0.315 mmol/L [2]: 80 ± 12%

Structure (SMILES): C=CCCC(=O)N[C@@H](Cc1ccc(O)cc1)C(=O)NCC(=O)NCC(=O)N[C@@H](Cc1ccccc1)C(=O)N[C@@H](CC(C)C)C(=O)OC [KK-108]
- Relative Binding to DOR [1]: 34%
- remaining at 1 h, 0.315 mmol/L [2]: 73 ± 7%

Structure (SMILES): COC(=O)[C@H](CC(C)C)NC(=O)[C@H](Cc1ccccc1)NC(=O)CNC(=O)CNC(=O)[C@H](Cc1ccc(O)cc1)NC(=O)C1CCCCC1 [KK-112]
- Relative Binding to DOR [1]: 13%
- remaining at 1 h, 0.315 mmol/L [2]: 62 ± 7%

Structure (SMILES): CC(C)C[C@H](NC(=O)[C@H](Cc1ccccc1)NC(=O)CNC(=O)CNC(=O)[C@@H](N)Cc1ccc(O)cc1)C(=O)O [Leu-ENK, YGGFL, reference compound]
- remaining at 1 h, 0.315 mmol/L [2]: 23 ± 3%

Structure (SMILES): CC(C)C[C@H](NC(=O)[C@H](Cc1ccccc1)NC(=O)CNC(=O)CNC(=O)[C@H](Cc1ccc(O)cc1)NC(=O)C(C)(C)C)C(=O)O [KK-103]
- tissue level at time at 2 h ([7]; brain, sc, read-out: concentration in brain): 200 ng/g
- half-life ([7]; plasma, iv): 4.8 min
- half-life ([7]; plasma, sc): 8.9 min
- tissue level at time at 2 h ([7]; plasma, sc, read-out: concentration in plasma): 170000 ng/g
- Relative Binding to DOR [1]: 65% and ~70%
- time stable in mouse plasma [2]: at least 5 h
- half-life in mouse plasma ([2]; extrapolated): 36 h
- remaining at 1 h, 0.315 mmol/L [2]: 93%
- half-life at 0.315 mmol/L ([2]; mouse, plasma, extrapolated): 37 h
- respiration rate versus vehicle ([3]; 13 mg/kg, any time point between 30 and 240 min): comparable to that of mice treated with vehicle
- breathing depression [3]: did not induce breathing depression
- physical dependence: withdrawal jumps after naloxone [5]: not a single jump was observed
- metabolised at 1 h [8]: < 10%
- inhibition of human liver microsome enzymes [9]: did not inhibit
- solubility [10]: 5000 µg/mL (≈ 7.82 mM)
- toxicity at the highest deliverable dose [11]: no toxicity
- effect on locomotor activity [12]: without effecting the locomotor activity
- stability in cerebrospinal fluid [13]: almost no degradation

Structure (SMILES): CCCCCC(=O)N[C@@H](Cc1ccc(O)cc1)C(=O)NCC(=O)NCC(=O)N[C@@H](Cc1ccccc1)C(=O)N[C@@H](CC(C)C)C(=O)OC [KK-93]
- Relative Binding to DOR [1]: 33%
- remaining at 1 h, 0.315 mmol/L [2]: 85 ± 11%
